According to patent US7264932B2, “Nuclease inhibitor cocktail” (Applera Corporation, priority 1999, dated 2007):

Key:
RNase A [1] = assay: Salt-based inhibition of RNase activity (RNaseAlert); assay type: biochemical, bovine; conditions: increasing salt concentrations, fluorescence 490/520 nm
diluted liver lysate = conditions: 5 mm edta, liver lysate 1:5, e. coli total rna, room temperature 5.5 min
Experimental: Tissues (5 mg) were dounced in 50 ul of non-denaturing, neutral ph buffer (24 mm hepes, ph 7.2, 50 mm nac1, 1 mm mgc12). Diluted tissue lysates (pancreas 1:20,000; liver 1:5) or 5 pg/ul bovine rnase a were pre-incubated with 0.2u/ul rip, 50 mm citrate or 5 mm edta for 30 sec. A total of 100 pg/ul e. Coli total rna was then added to the mixture and incubated at room temperature for an additional 4 min (FIG. 1., Lanes 1-5) or 5.5 min (lanes 6&7). […] The sample (1 ul) was analyzed by bioanalyzer 2100 after separation on an ma labchip.

[2] = system: total RNase activity in pancreas lysate; assay: RNaseAlert fluorescent assay, pancreas lysate; assay type: biochemical, mouse
Experimental: (§1) Flash-frozen mouse tissues (5 mg) were dounced in 50 ul of 24 mM Hepes, pH 7.2, 50 mM NaCl, 1 mM MgCl2. RNase activity was measured using Ambion's fluorescent RNaseAlert™ assay ([…] substrate, 10 ug/ml ultrapure BSA) via BMG POLARstar Optima Fluorometer according to the manufacturer's protocol. In addition to measuring total RNase activity, lysates were treated with Ap5A, heat (90 C for 10 min), or 0.5 U/ul RIP. Tissue lysate dilutions: pancreas 1:16,200; liver 1:17; thymus 1:17; kidney 1:17; spleen 1:810; lung 1:810. The data were normalized to maximum RNase activity observed in tissue lysate with kidney being the tissue with the lowest RNase activity and assigned the arbitrary unit of 1. […] However, RIP is specific to RNase A superfamily enzymes, where Ap5A, as a RNA analogue, is expected to be a more general RNase inhibitor.
Pancreatic tissue (5 mg) was dounced in 50ul of 24 mM Hepes, pH 7.2, 50 mM NaCl, 1 mM MgCl2. Diluted pancreas lysate (1:12,000) was subjected to a 1/10 volume of negatively charged SP resin. RNase activity of the clarified lysate was measured using. Ambion's fluorescent RNaseAlert™ assay (40 nM substrate, 10 ug/ml ultrapure BSA) via BMG POLARstar Optima, according to the manufacturer's instructions. Resin treatment removed >95% of total RNase activity in diluted pancreas lysate. […] In this case, inactivation is accomplished by binding of the positively-charged RNase to the negatively-charged sulfopropyl resin. Thus the RNases can be physically removed from the tissue lysate and separated from the RNA that they might otherwise degrade over time.

[3] = system: total RNase activity in kidney lysate; assay: RNaseAlert fluorescent assay, kidney lysate; assay type: biochemical, mouse; conditions: heated + 2.9 mM Ap5A
Experimental: as §1

[4] = system: total RNase activity in thymus lysate; assay: RNaseAlert fluorescent assay, thymus lysate; assay type: biochemical, mouse; conditions: heated + 2.9 mM Ap5A
Experimental: as §1

[5] = system: total RNase activity in liver lysate; assay: RNaseAlert fluorescent assay, liver lysate; assay type: biochemical, mouse; conditions: heated + 2.9 mM Ap5A
Experimental: as §1

RNase A [6] = biological target: T1, RNase A (Bos taurus, UniProt P61823); assay: Radiolabeled RNA probe degradation gel assay, RNase A; assay type: biochemical
T1 sequence (P61823 27-150): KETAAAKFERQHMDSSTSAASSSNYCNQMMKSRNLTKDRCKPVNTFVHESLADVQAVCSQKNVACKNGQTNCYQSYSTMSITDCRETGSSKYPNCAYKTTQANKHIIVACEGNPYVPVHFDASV
Experimental: (§2) The activity of an anti-nuclease cocktail is readily determined using radiolabeled RNA or DNA to detect the inhibition of nuclease by anti-nuclease antibodies in the anti-nuclease cocktail. […] Assay buffer, nuclease and an anti-nuclease cocktail are then added to 0.5 ml microfuge tubes. A mixture comprising assay buffer, RNA or DNA and radiolabeled RNA or DNA is added to the microfuge tubes, and the tubes are vortexed and microfuged. After incubation of the tubes at 37° C. for 30 minutes, a portion of the tube contents is removed and placed into gel loading buffer. After mixing, the combination is loaded onto a gel, typically a 8M urea/5% acrylamide gel, which is exposed to film.
(§3) Radiolabeled RNA was used to detect the inhibition of RNase A, RNase T1, and RNase 1 by specific antibodies.
(§4) The “MIX” was prepared by combining 10× Assay Buffer (0.9 μl/rxn), 5 mg/ml yeast RNA (0.4 μl/rxn), ^32P-labeled β actin RNA (1 μl/rxn), and nuclease-free H2O (6.7 μl/rxn), for a total of 9 μl/rxn.
(§5) 1× Assay Buffer was added first. Then Specific RNase Cocktail, Specific Anti-RNase Cocktail and MIX were added. The tubes are vortexed and microfuged, then incubated at 37° C. for 30 min (Table 9).
(§6) At the end of the incubation time, 10 μl of solution was removed from the tube and placed into 10 μl Gel Loading Buffer II. The combination was mixed thoroughly and loaded onto a 8M urea/5% acrylamide gel. The gel was exposed to film for 30 min. at −80° C. with an intensifying screen.

diluted pancreas lysate = assay: Intactness of total RNA (RNA LabChip), diluted pancreas lysate; assay type: biochemical, mouse; conditions: 1% SDS, pancreatic lysate 1:20,000, mouse liver total RNA, 25 C 4 min
Experimental: A total of 100 pg/ul e. […].
Pancreatic lysate (0.1 mg/ml) was diluted 1:20,000 in 24 mM Hepes, pH 7.2, 50 mM NaCl, 1 mM MgCl2 and pre-incubated with either 1% SDS or 6.25 mM OVA for 30 s prior to the addition of 2 ug mouse liver total RNA. Reactions were incubated at 25 C for an additional 4 min, quenched, and analyzed on an RNA LabChip.
Mouse pancreatic tissue (5 mg) was disrupted in 50 ul of 24 mM Hepes, pH 7.2, 50 mM NaCl, 1 mM MgCl2. The diluted lysate (1:20,000) was pre-incubated with 50 uM Benzopurpurin B (BpB) for 30 sec and then added to 100 ng/ul mouse liver total RNA (Ambion) and incubated at 23 C for an additional 4 min. Samples were quenched in a guanidinium lysis buffer, and the RNA purified via MEGAclear™ MAG-96 and eluted with 20 ul nuclease-free water. […] These experiments were conducted in the same fashion except that 100 uM BpB was employed. The sample (1 ul) was analyzed by 2100 BioAnalyzer software (Agilent) after separation on an RNA LabChip.
Mouse pancreatic tissue (5 mg) was dounced in 50 ul of 24 mM Hepes, pH 7.2, 50 mM NaCl, 1 mM MgCl2. A diluted lysate (1:20,000) was pre-incubated with 100 uM BpB or the analog Benzopurpurin 4B (Bp4B) for 30 sec and then added to 100 ng/ul mouse liver total RNA (Ambion) and incubated at 23 C for an additional 4 min. Samples were quenched in a guanidinium lysis buffer, and the RNA purified via MEGAclear™ MAG-96 and eluted with 20 ul nuclease-free water. The sample (1 ul) was analyzed by 2100 BioAnalyzer software (Agilent) after separation on an RNA LabChip.
Pancreatic tissue (5 mg) was dounced in 50 ul of 24 mM Hepes, pH 7.2, 50 mM NaCl, 1 mM MgCl2. The lysate was diluted (1:20,000) and then pre-incubated with 200 uM of 467929. […] All samples were pre-incubated for 30 sec before being added to 100 ng/ul mouse liver total RNA (Ambion) and incubated at 23C for an additional 4 min. The RNA was then immediately purified via MEGAclear™ MAG-96 and eluted with 20 ul nuclease-free water. The recovered RNA (1 ul) was analyzed by 2100 BioAnalyzer software after separation on an RNA LabChip.

RNase A, 1, and T1 = assay: Anti-RNase antibodies / Specific Anti-RNase Cocktail with added non-antibody inhibitor; assay type: biochemical; conditions: 0.1–0.5% SDS added to cocktail
Experimental: as §2, §3, §4, §5, §6

RNase T1 = biological target: T2, RNase T1 (Aspergillus oryzae, UniProt P00651); assay: Radiolabeled RNA probe degradation gel assay, RNase T1; assay type: biochemical; conditions: 2.5 to 5 ug of heparin
T2 sequence (P00651 27-130): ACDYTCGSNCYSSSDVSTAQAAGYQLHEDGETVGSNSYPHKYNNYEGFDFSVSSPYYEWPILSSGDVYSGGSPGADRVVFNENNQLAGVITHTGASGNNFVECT
Experimental: The activity of anti-nuclease antibodies is readily determined using radiolabeled RNA or DNA to detect the inhibition of RNase or DNase by the anti-nuclease antibodies. In general, the nuclease and anti-nuclease antibody are separately diluted, typically in 1× assay buffer. Assay buffer, nuclease and anti-nuclease antibody are then added to 0.5 ml microfuge tubes. For assaying anti-RNase activity, a mixture comprising assay buffer, RNA and radiolabeled RNA is added to the microfuge tubes. The “MIX” of assay buffer, RNA and radiolabeled RNA is generally prepared by combining 10× Assay Buffer (0.9 μl/rxn), 5 mg/ml yeast RNA (0.4 μl/rxn), ^32-β actin RNA (1 μl/rxn), and nuclease-free H2O (6.7 μl/rxn) for a total of 9 μl/rxn. The tubes are vortexed and microfuged, then incubated at 37° C. for 30 minutes. After incubation, a portion of the tube contents is removed and placed into gel loading buffer. Then the tube contents and the gel loading buffer are mixed, and the combination is loaded onto a gel, typically a 8M urea/5% acrylamide gel, which is exposed to film. […]
The activity of an anti-nuclease cocktail is readily determined using radiolabeled RNA or DNA to detect the inhibition of nuclease by anti-nuclease antibodies in the anti-nuclease cocktail. […]

Compound: O=C([O-])CC(O)(CC(=O)[O-])C(=O)[O-].[Na+].[Na+].[Na+] [NaCitrate]
- effect on RNase A activity (RNase A [1]): Inhibits

Compound: [Cl-].[Na+] [NaCl]
- effect on RNase A activity (RNase A [1]): inhibits

Compound: O=C(O)CN(CCN(CC(=O)O)CC(=O)O)CC(=O)O [EDTA, ethylenediamine tetraacetic acid]
- protection of total RNA from degradation (diluted liver lysate): significant protection

Compound: Nc1ncnc2c1ncn2[C@@H]1O[C@H](COP(=O)(O)OP(=O)(O)OP(=O)(O)OP(=O)(O)OP(=O)(O)OC[C@H]2O[C@@H](n3cnc4c(N)ncnc43)[C@H](O)[C@@H]2O)[C@@H](O)[C@H]1O [Ap5A]
- % Inhibition ([2]; Pancreas + 232 uM Ap5A): 44.3%
- Slope/sec ([2]; Pancreas + 232 uM Ap5A): 13.58
- % Inhibition ([2]; Pancreas + 1.3 mM Ap5A): 87.5%
- Slope/sec ([2]; Pancreas + 1.3 mM Ap5A): 3.05
- % Inhibition ([2]; Pancreas + 2.9 mM Ap5A): 97.7%
- Slope/sec ([2]; Pancreas + 2.9 mM Ap5A): 0.55
- % Inhibition [3]: 98.9%
- Slope/sec [3]: 0.02
- % Inhibition [4]: 88.5%
- Slope/sec [4]: 0.33
- % Inhibition [5]: 97.2%
- Slope/sec [5]: 0.46

Compound: CCCCCCCCCCCCOS(=O)(=O)[O-].[Na+] [SDS, sodium dodecyl sulfate]
- concentration that inhibited activity of RNase A (RNase A [6]; 50 pg of RNase A): 0.25% SDS inhibited activity of 50 pg of RNase A.
- protection of RNA from degradation (diluted pancreas lysate): help remedy RNA degradation
- effect on anti-RNase A, 1, and T1 action of Specific Anti-RNase Cocktail (RNase A, 1, and T1): Addition of 0.1–0.5% SDS to Specific Anti-RNase Cocktail strengthened anti-

Compound: heparin
- effect on activity of RNases A (RNase A [6]; 2.5 to 5 ug of heparin): *This amount of heparin did not effect the activities of RNases A and Rnases T1.
- effect on activity of Rnases T1 (RNase T1): *This amount of heparin did not effect the activities of RNases A and Rnases T1.
